#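 Values below derive from 48-hour exposures of cells grown in 96-well plates, with endpoints linearly interpolated between the two concentrations bracketing the appropriate inhibition level. At the GI50, growth is halved.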 The source made the active and inactive calls. Rule as the data show it: active = GI50 up to about 1.1 µM and inactive = higher.
# What was measured:
# Experiment in all cases: NCI-60 cell line screen, 48 h
# SNB-75 = system: SNB-75
# HOP-62 = system: HOP-62
# RPMI-8226 = system: RPMI-8226
# SNB-19 = system: SNB-19
# MCF7 = system: MCF7
# NCI-H226 = system: NCI-H226
# K562 = system: K562
# RXF 393 = system: RXF 393
# KM12 = system: KM12
# OVCAR-3 = system: OVCAR-3
# OVCAR-5 = system: OVCAR-5
# TK-10 = system: TK-10
# SF-295 = system: SF-295
# EKVX = system: EKVX
# SF-539 = system: SF-539
# 786-0 = system: 786-0
# DU-145 = system: DU-145
# COLO 205 = system: COLO 205
# SK-MEL-2 = system: SK-MEL-2
# T47D = system: T47D
# SW-620 = system: SW-620
# MDA-N = system: MDA-N
# A549 = system: A549
# U-251 = system: U-251
# HL-60 = system: HL-60
# NCI-H460 = system: NCI-H460
# IGROV-1 = system: IGROV-1
# MOLT-4 = system: MOLT-4
# SF-268 = system: SF-268
# PC-3 = system: PC-3
# NCI/ADR-RES = system: NCI/ADR-RES
# CAKI-1 = system: CAKI-1
# CCRF-CEM = system: CCRF-CEM
# NCI-H23 = system: NCI-H23
# HCT-116 = system: HCT-116
# HCT-15 = system: HCT-15
# M14 = system: M14
# A498 = system: A498
# UACC-62 = system: UACC-62
# LOX IMVI = system: LOX IMVI
# UO-31 = system: UO-31
# BT-549 = system: BT-549
# Hs-578T = system: Hs-578T
# OVCAR-4 = system: OVCAR-4
# UACC-257 = system: UACC-257
# MDA-MB-231 = system: MDA-MB-231
# HOP-92 = system: HOP-92
# SK-MEL-5 = system: SK-MEL-5
# SK-MEL-28 = system: SK-MEL-28
# Malme-3M = system: Malme-3M
# SK-OV-3 = system: SK-OV-3
# MDA-MB-435 = system: MDA-MB-435
# ACHN = system: ACHN
# OVCAR-8 = system: OVCAR-8
# HT-29 = system: HT-29
# SN12C = system: SN12C
# HCC 2998 = system: HCC 2998
# NCI-H522 = system: NCI-H522
smiles,measurement,setting,value
CC1=C[C@@H]2Cc3nc4cc(Cl)ccc4c(N)c3[C@H](C1)C2,GI50,SNB-75,4.97 µM (inactive)
same,GI50,HOP-62,11.2 µM (inactive)
same,GI50,RPMI-8226,3.66 µM (inactive)
same,GI50,SNB-19,11.8 µM (inactive)
same,GI50,MCF7,10 µM (inactive)
same,GI50,NCI-H226,8.38 µM (inactive)
same,GI50,K562,2.71 µM (inactive)
same,GI50,RXF 393,5.42 µM (inactive)
same,GI50,KM12,7.6 µM (inactive)
same,GI50,OVCAR-3,10.4 µM (inactive)
same,GI50,OVCAR-5,4.28 µM (inactive)
same,GI50,TK-10,5.78 µM (inactive)
same,GI50,SF-295,6.17 µM (inactive)
same,GI50,EKVX,3.32 µM (inactive)
same,GI50,SF-539,12.4 µM (inactive)
same,GI50,786-0,6.03 µM (inactive)
same,GI50,DU-145,12.9 µM (inactive)
same,GI50,COLO 205,1.48 µM (inactive)
same,GI50,SK-MEL-2,14.7 µM (inactive)
same,GI50,T47D,12.3 µM (inactive)
same,GI50,SW-620,11 µM (inactive)
same,GI50,MDA-N,15.5 µM (inactive)
same,GI50,A549,12.6 µM (inactive)
same,GI50,U-251,13.4 µM (inactive)
same,GI50,HL-60,15.3 µM (inactive)
same,GI50,NCI-H460,9.02 µM (inactive)
same,GI50,IGROV-1,1.76 µM (inactive)
same,GI50,MOLT-4,2.07 µM (inactive)
same,GI50,SF-268,12.5 µM (inactive)
same,GI50,PC-3,12.5 µM (inactive)
same,GI50,NCI/ADR-RES,11.7 µM (inactive)
same,GI50,CAKI-1,3.89 µM (inactive)
same,GI50,CCRF-CEM,12.2 µM (inactive)
same,GI50,NCI-H23,8.22 µM (inactive)
same,GI50,HCT-116,2.96 µM (inactive)
same,GI50,HCT-15,7 µM
same,GI50,M14,4.57 µM (inactive)
same,GI50,A498,11.2 µM (inactive)
same,GI50,UACC-62,14.6 µM (inactive)
same,GI50,LOX IMVI,5.38 µM (inactive)
same,GI50,UO-31,5.06 µM (inactive)
same,GI50,BT-549,16.2 µM (inactive)
same,GI50,Hs-578T,2.42 µM (inactive)
same,GI50,OVCAR-4,3.99 µM (inactive)
same,GI50,UACC-257,2.02 µM (inactive)
same,GI50,MDA-MB-231,11.6 µM (inactive)
same,GI50,HOP-92,0.685 µM (active)
same,GI50,SK-MEL-5,2.84 µM (inactive)
same,GI50,SK-MEL-28,12.3 µM (inactive)
same,GI50,Malme-3M,12 µM (inactive)
same,GI50,SK-OV-3,12 µM (inactive)
same,GI50,MDA-MB-435,10.9 µM (inactive)
same,GI50,ACHN,10.6 µM (inactive)
same,GI50,OVCAR-8,15.3 µM (inactive)
same,GI50,HT-29,2.68 µM (inactive)
same,GI50,SN12C,12.4 µM (inactive)
O=C(NCCCCCCNCc1cccc2ccccc12)Nc1cccc2ccccc12,GI50,SNB-75,> 100 µM (inactive)
same,GI50,HOP-62,> 100 µM (inactive)
same,GI50,RPMI-8226,> 100 µM (inactive)
same,GI50,HCC 2998,85.3 µM (inactive)
same,GI50,SNB-19,> 100 µM (inactive)
same,GI50,MCF7,> 100 µM (inactive)
same,GI50,K562,> 100 µM (inactive)
same,GI50,RXF 393,> 100 µM (inactive)
same,GI50,KM12,> 100 µM (inactive)
same,GI50,OVCAR-3,> 100 µM (inactive)
same,GI50,OVCAR-5,63.1 µM (inactive)
same,GI50,TK-10,> 100 µM (inactive)
same,GI50,SF-295,> 100 µM (inactive)
same,GI50,EKVX,> 100 µM (inactive)
same,GI50,SF-539,> 100 µM (inactive)
same,GI50,786-0,> 100 µM (inactive)
same,GI50,DU-145,> 100 µM (inactive)
same,GI50,COLO 205,> 100 µM (inactive)
same,GI50,SK-MEL-2,> 100 µM (inactive)
same,GI50,T47D,> 100 µM (inactive)
same,GI50,SW-620,> 100 µM (inactive)
same,GI50,MDA-N,> 100 µM (inactive)
same,GI50,A549,> 100 µM (inactive)
same,GI50,U-251,> 100 µM (inactive)
same,GI50,HL-60,> 100 µM (inactive)
same,GI50,NCI-H460,> 100 µM (inactive)
same,GI50,IGROV-1,> 100 µM (inactive)
same,GI50,MOLT-4,> 100 µM (inactive)
same,GI50,SF-268,> 100 µM (inactive)
same,GI50,PC-3,> 100 µM (inactive)
same,GI50,NCI/ADR-RES,> 100 µM (inactive)
same,GI50,CAKI-1,> 100 µM (inactive)
same,GI50,CCRF-CEM,> 100 µM (inactive)
same,GI50,NCI-H23,> 100 µM (inactive)
same,GI50,HCT-116,> 100 µM (inactive)
same,GI50,HCT-15,> 100 µM
same,GI50,M14,34.3 µM (inactive)
same,GI50,A498,> 100 µM (inactive)
same,GI50,NCI-H522,> 100 µM (inactive)
same,GI50,UACC-62,> 100 µM (inactive)
same,GI50,LOX IMVI,> 100 µM (inactive)
same,GI50,UO-31,51.6 µM (inactive)
same,GI50,BT-549,> 100 µM (inactive)
same,GI50,Hs-578T,> 100 µM (inactive)
same,GI50,OVCAR-4,> 100 µM (inactive)
same,GI50,UACC-257,> 100 µM (inactive)
same,GI50,MDA-MB-231,> 100 µM (inactive)
same,GI50,HOP-92,> 100 µM (inactive)
same,GI50,SK-MEL-5,> 100 µM (inactive)
same,GI50,SK-MEL-28,> 100 µM (inactive)
same,GI50,Malme-3M,> 100 µM (inactive)
same,GI50,MDA-MB-435,> 100 µM (inactive)
same,GI50,ACHN,> 100 µM (inactive)
same,GI50,OVCAR-8,> 100 µM (inactive)
same,GI50,HT-29,> 100 µM (inactive)
same,GI50,SN12C,> 100 µM (inactive)
